Counter-ions that a name gives are not always drawn.
Experiments:
[1] = Oral bioavailability of peptide amphetamine conjugates (HCl salts, ELISA); conditions: rats
[2] = Intranasal bioavailability of peptide amphetamine conjugates (HCl salts, ELISA); conditions: for Percent AUC (bioavailability relative to Amphetamine) / Percent Cmax (relative to Amphetamine): Intranasal, rats
[3] = Kitchen tests: water, acid (vinegar), base (baking powder, baking soda), boiling; type: physicochemical; conditions: for free amphetamine released: heated to boiling for 20-60 minutes
Protocol: “Kitchen tests” were performed in anticipation of attempts by illicit chemists to release free amphetamine from the amphetamine conjugate.

[4] = Intravenous bioavailability of peptide amphetamine conjugates (HCl salts, ELISA); conditions: rats
rats [5] = conditions: cited from earlier work
[6] = Oral bioavailability at escalating doses (LC/MS/MS); conditions: rat, oral
rats [7] = experiment: Single oral dose toxicity; type: in vivo, Sprague Dawley rats; conditions: rat, single oral dose
Protocol: Three male and three female Sprague Dawley rats per group were given a single oral administration of L-lysine-d-amphetamine at 0.1, 1.0, 10, 60, 100, or 1000 mg/kg (Table 53).
Animals found dead, or sacrificed moribund were necropsied and discarded.

[8] = system: enzyme cocktails (pepsin, pancreatin, pronase, esterase, Omnigest, VitälZym); experiment: Stability under treatment with commercially available enzyme cocktails; type: in vitro ADME; conditions: 37° C.
Protocol: For acids and bases (Table 59), 10 mg of Lys-Amp was mixed with 2 mL of each stock solution, and the solution was shaken at 20° C. For enzyme treatment (Table 60), 10 mg Lys-Amp was mixed with 5 mL of each enzyme cocktail, and the solution was shaken at 37° C. […] Many of the commercially available reagents also contained various solvents and/or surfactants.
Unless otherwise indicated, solutions were used directly from the container and were combined with neat Lys-Amp solid. Lewis Red Devil® Lye, Enforcer Drain Care® Septic Treatment, and Rid-X® Septic Treatment were prepared as saturated solutions in H2O. Enzymes used were purchased from Sigma and directly dissolved in water (3 mg/mL pepsin, 10 mg/mL pancreatin, 3 mg/mL pronase, 3 mg/mL esterase), while enzyme-containing nutraceuticals such as Omnigest® and VitälZym® were first either crushed or opened (1 tablet or capsule per 5 mL of H2O).

[9] = Stability under basic conditions
children with ADHD = experiment: Pediatric efficacy trial, ADHD-RS and CPRS, parallel-group, four weeks; conditions: children 6-12, 30, 50 or 70 mg once daily

With `[2H]OC(=O)CC[C@H](N)C(=O)NC(C)Cc1ccccc1` (some centres unmarked) [E-Amp] the “Percent AUC (bioavailability relative to Amphetamine)” value [1] was 73% and the “Percent Cmax (relative to Amphetamine)” value [1] was 95%.

In the case of `[2H]OC(=O)CC[C@H](NC(=O)[C@@H](N)CCC(=O)O)C(=O)NC(C)Cc1ccccc1` (some centres unmarked) [EE-Amp], the “Percent AUC (bioavailability relative to Amphetamine)” value [1] is reported as 26% and the “Percent Cmax (relative to Amphetamine)” value [1] is reported as 74%.

With `[2H]OC(=O)CC[C@H](NC(=O)[C@H](CCC(=O)O)NC(=O)[C@@H](N)CCC(=O)O)C(=O)NC(C)Cc1ccccc1` (some centres unmarked) [EEE-Amp] the “Percent AUC (bioavailability relative to Amphetamine)” value [1] was 69%, the “Percent Cmax (relative to Amphetamine)” value [1] was 53% and the “Percent AUC (bioavailability relative to Amphetamine)” value [2] was 10%. The “Percent Cmax (relative to Amphetamine)” value [2] was 10%.

In the case of `[2H]N(C(=O)[C@H](CCC(=O)O)NC(=O)[C@@H](N)CCC(=O)O)[C@@H](Cc1ccccc1)C(=O)NC(C)Cc1ccccc1` (some centres unmarked) [EEF-Amp], the “Percent AUC (bioavailability relative to Amphetamine)” value [1] is reported as 42%, the “Percent Cmax (relative to Amphetamine)” value [1] is reported as 73% and the “Percent AUC (bioavailability relative to Amphetamine)” value [2] is reported as 39%. For the same compound, the “Percent Cmax (relative to Amphetamine)” value [2] was 29%.

In the case of `[2H]N(C(=O)[C@@H](N)Cc1ccccc1)[C@@H](Cc1ccccc1)C(=O)NC(C)Cc1ccccc1` (some centres unmarked) [FF-Amp], the “Percent AUC (bioavailability relative to Amphetamine)” value [1] is reported as 27% and the “Percent Cmax (relative to Amphetamine)” value [1] is reported as 64%.

For `CC(Cc1ccccc1)NC(=O)CN` (centres unmarked) [G-Amp], the “Percent AUC (bioavailability relative to Amphetamine)” value [1] was 81%, the “Percent Cmax (relative to Amphetamine)” value [1] was 78% and the “Percent AUC (bioavailability relative to Amphetamine)” value [2] was 65%. For the same compound, the “Percent Cmax (relative to Amphetamine)” value [2] was 53%.

In the case of `[2H]N(CC(=O)NC(C)Cc1ccccc1)C(=O)CN` (centres unmarked) [GG-Amp], the “Percent AUC (bioavailability relative to Amphetamine)” value [1] is reported as 79%, the “Percent Cmax (relative to Amphetamine)” value [1] is reported as 88% and the “Percent AUC (bioavailability relative to Amphetamine)” value [2] is reported as 88%. For the same compound, the “Percent Cmax (relative to Amphetamine)” value [2] was 85%.

Compound `CC(Cc1ccccc1)NC(=O)CNC(=O)CNC(=O)CN` (centres unmarked) [Gly3-Amp, 2-amino-N-({[(1-methyl-2-phenyl-ethylcarbornyl)-methyl]-carbornyl}-methyl)-acetamide] has a free amphetamine released ([3]; Baking Powder) of 0%, a free amphetamine released ([3]; Baking Soda) of 0% and a free amphetamine released ([3]; Tap Water) of 0%. For the same compound, the free amphetamine released ([3]; Vinegar) was 0% and the “Release of free amphetamine in kitchen tests” value ([3]; water, vinegar, baking powder, baking soda, boiling 20-60 minutes) was “no detectable free amphetamine”.

For `CC(Cc1ccccc1)NC(=O)C(O)C(O)C(O)C(O)CO` (centres unmarked) [Gulonate-Amp], the “Percent AUC (bioavailability relative to Amphetamine)” value [1] was 1%, the “Percent Cmax (relative to Amphetamine)” value [1] was 1% and the “Percent AUC (bioavailability relative to Amphetamine)” value [2] was 0.4%. For the same compound, the “Percent Cmax (relative to Amphetamine)” value [2] was 0.5%, the “Percent AUC (bioavailability relative to Amphetamine)” value [4] was 3% and the “Percent Cmax (relative to Amphetamine)” value [4] was 5%.

For `[2H]N[C@@H](Cc1c[nH]cn1)C(=O)NC(C)Cc1ccccc1` (some centres unmarked) [H-Amp], the “Percent AUC (bioavailability relative to Amphetamine)” value [1] was 16%, the “Percent Cmax (relative to Amphetamine)” value [1] was 21% and the “Percent AUC (bioavailability relative to Amphetamine)” value [2] was 22%. The “Percent Cmax (relative to Amphetamine)” value [2] was 42%.

In the case of `[2H]N[C@H](C(=O)NC(C)Cc1ccccc1)[C@@H](C)CC` (some centres unmarked) [I-Amp], the “Percent AUC (bioavailability relative to Amphetamine)” value [1] is reported as 71%, the “Percent Cmax (relative to Amphetamine)” value [1] is reported as 52% and the “Percent AUC (bioavailability relative to Amphetamine)” value [2] is reported as 73%. For the same compound, the “Percent Cmax (relative to Amphetamine)” value [2] was 97%.

For `[2H]N(CC(=O)NC(C)Cc1ccccc1)C(=O)[C@@H](N)CCCCN` (some centres unmarked) [KG-Amp], the “Percent AUC (bioavailability relative to Amphetamine)” value [1] was 69%, the “Percent Cmax (relative to Amphetamine)” value [1] was 71% and the “Percent AUC (bioavailability relative to Amphetamine)” value [2] was 13%. For the same compound, the “Percent Cmax (relative to Amphetamine)” value [2] was 12%.

In the case of `[2H]N[C@@H](CC(C)C)C(=O)NC(C)Cc1ccccc1` (stereo partly drawn) [L-Amp], the “Percent AUC (bioavailability relative to Amphetamine)” value [1] is reported as 65% and the “Percent Cmax (relative to Amphetamine)” value [1] is reported as 81%.

With `[2H]OC(=O)CC[C@H](NC(=O)[C@@H](N)CC(C)C)C(=O)NC(C)Cc1ccccc1` (some centres unmarked) [LE-Amp] the “Percent AUC (bioavailability relative to Amphetamine)” value [1] was 40%, the “Percent Cmax (relative to Amphetamine)” value [1] was 28% and the “Percent AUC (bioavailability relative to Amphetamine)” value [2] was 6%. The “Percent Cmax (relative to Amphetamine)” value [2] was 6%.

With `[2H]N1CCC[C@H]1C(=O)NC(C)Cc1ccccc1` (some centres unmarked) [P-Amp] the “Percent AUC (bioavailability relative to Amphetamine)” value [1] was 6%, the “Percent Cmax (relative to Amphetamine)” value [1] was 3% and the “Percent AUC (bioavailability relative to Amphetamine)” value [2] was 2%. For the same compound, the “Percent Cmax (relative to Amphetamine)” value [2] was 2%.

With `CC(Cc1ccccc1)NC(=O)C1CCCN1C(=O)C1CCCN1` (centres unmarked) [PP-Amp] the “Percent AUC (bioavailability relative to Amphetamine)” value [1] was 61%, the “Percent Cmax (relative to Amphetamine)” value [1] was 80% and the “Percent AUC (bioavailability relative to Amphetamine)” value [2] was 47%. For the same compound, the “Percent Cmax (relative to Amphetamine)” value [2] was 43%.

In the case of `CC(Cc1ccccc1)NC(=O)C(N)Cc1ccccc1` (centres unmarked) [Phe-Amp, 2-amino-3-phenylpropanoic acid-(1-methyl-2-phenylethyl)-amide], the “Bioavailability by parenteral routes of administration” value ([2]; rat, parenteral routes) is reported as “little or no decrease”.

In the case of `[2H]N[C@@H](Cc1ccc(O)cc1)C(=O)NC(C)Cc1ccccc1` (some centres unmarked) [Y-Amp], the “Percent AUC (bioavailability relative to Amphetamine)” value [1] is reported as 25%, the “Percent Cmax (relative to Amphetamine)” value [1] is reported as 20% and the “Percent AUC (bioavailability relative to Amphetamine)” value [2] is reported as 21%. The “Percent Cmax (relative to Amphetamine)” value [2] was 20%.

For `C[C@H](N)Cc1ccccc1` [d-amphetamine sulfate], the “Oral LD50” value (rats [5]) is listed as 96.8 mg/kg, the F of d-amphetamine ([6]; 12 mg/kg) is listed as 101% and the F of d-amphetamine ([6]; 60 mg/kg) is listed as 223%.

For L-lysine-d-amphetamine diHCl, the “Observable signs of toxicity, Groups 4-6” value (rats [7]) was “increased motor activity within two hours post-dose” and the “Observable signs of toxicity, Groups 1-3” value (rats [7]; Days 1-7) was “no observable signs”.

L-lysine-d-amphetamine dimesylate gave a d-amphetamine released ([8]; Cellfood ®, 1 h) of 0 w.t. % d-amphetamine, a d-amphetamine released ([8]; Cellfood ®, 24 h) of 0 w.t. % d-amphetamine and a d-amphetamine released ([8]; Drano ® Max with Bacteria, 1 h) of 0 w.t. % d-amphetamine. For the same compound, the d-amphetamine released ([8]; Drano ® Max with Bacteria, 24 h) was 0 w.t. % d-amphetamine, the d-amphetamine released ([8]; Enforcer ® Septic, 1 h) was 0 w.t. % d-amphetamine and the d-amphetamine released ([8]; Enforcer ® Septic, 24 h) was 0 w.t. % d-amphetamine. The d-amphetamine released ([8]; Esterase 3 mg/mL, 1 h) was 0 w.t. % d-amphetamine, the d-amphetamine released ([8]; Esterase 3 mg/mL, 24 h) was 19 w.t. % d-amphetamine and the d-amphetamine released ([8]; Omnigest ®, 1 h) was 0 w.t. % d-amphetamine. The d-amphetamine released ([8]; Omnigest ®, 24 h) was 0 w.t. % d-amphetamine, the d-amphetamine released ([8]; Pancreatin 10 mg/mL, 1 h) was 0 w.t. % d-amphetamine and the d-amphetamine released ([8]; Pancreatin 10 mg/mL, 24 h) was 0 w.t. % d-amphetamine. It also gave a d-amphetamine released ([8]; Pepsin 3 mg/mL, 1 h) of 0 w.t. % d-amphetamine, a d-amphetamine released ([8]; Pepsin 3 mg/mL, 24 h) of 0 w.t. % d-amphetamine and a d-amphetamine released ([8]; Pronase 3 mg/mL, 1 h) of 0 w.t. % d-amphetamine. For the same compound, the d-amphetamine released ([8]; Pronase 3 mg/mL, 24 h) was 24 w.t. % d-amphetamine, the d-amphetamine released ([8]; Rid-X ® Septic, 1 h) was 0 w.t. % d-amphetamine and the d-amphetamine released ([8]; Rid-X ® Septic, 24 h) was 0 w.t. % d-amphetamine. It also gave a d-amphetamine released ([8]; VitälZym ®, 1 h) of 0 w.t. % d-amphetamine, a d-amphetamine released ([8]; VitälZym ®, 24 h) of 0 w.t. % d-amphetamine and a Maximum d-amphetamine release ([9]; 3M sodium hydroxide) of 25.4%. The d-amphetamine release ([9]; all other basic conditions) was “less than 3%” and the “Signs and symptoms of ADHD (ADHD-RS, CPRS) compared to placebo” value (children with ADHD) was “Significant improvements”.
